According to patent US20260184675A1, “CHIRAL ISOMERIC SULFITE COMPOUND AND APPLICATION THEREOF” (Chengdu Hanova BioSciences Co., Ltd, priority 2024, published 2026):

Experiments:
eggs of Aleyrodidae = test: Effect on hatching of eggs of Aleyrodidae, leaf disc method; type: in vivo; conditions: 10 ppm; for Hatching rate (%), Replicate 1 / Hatching rate (%), Replicate 2 / Hatching rate (%), Replicate 3 / Number of hatched larvae 5 days after insecticide delivery, Replicate 1 / Number of hatched larvae 5 days after insecticide delivery, Replicate 2 / Number of hatched larvae 5 days after insecticide delivery, Replicate 3: Aleyrodidae eggs; for Hatching rate (%), Replicate 1 / Hatching rate (%), Replicate 2 / Hatching rate (%), Replicate 3: 5 days after delivery; for Number of hatched larvae 5 days after insecticide delivery, Replicate 1 / Number of hatched larvae 5 days after insecticide delivery, Replicate 2 / Number of hatched larvae 5 days after insecticide delivery, Replicate 3: leaf disc
Outline: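 Leaf discs carrying Aleyrodidae eggs were first examined microscopically to record a baseline egg count. They were then dipped for 10 seconds in compound solution at 10 ppm or in clear water, taken out, and incubated with humidity maintained. Five days after delivery, the number of hatched larvae was recorded to assess hatching inhibition.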

[1] = system: eggs of Harmonia axyridis; test: Effect on hatching of eggs of Harmonia axyridis, egg card immersion; type: in vivo; conditions: 100 ppm; for Number of hatched larvae 4 days after insecticide delivery, Replicate 1 / Number of hatched larvae 4 days after insecticide delivery, Replicate 2 / Number of hatched larvae 4 days after insecticide delivery, Replicate 3: Harmonia axyridis egg cards, immersed 30 seconds; for Hatching rate (%), Replicate 1 / Hatching rate (%), Replicate 2 / Hatching rate (%), Replicate 3: Harmonia axyridis eggs, 4 days after delivery
Outline: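 Egg cards (~20 eggs each) dipped 30 s in 100 ppm insecticide, air dried and kept moist at 27° C; 5 cards per treatment, 3 replicates. Hatching assessed 4 days after treatment against pre-treatment egg counts, and control effect calculated by formula.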

eggs of Thrips = test: Effect on hatching of eggs of Thrips, leaf disc method; type: in vivo; conditions: 100 ppm; for Hatching rate (%): 5 days after insecticide delivery
Outline: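 Egg-bearing Vicia faba leaf discs (diameter 2.0 cm, wetted filter paper beneath) were counted microscopically for baseline eggs. They were then soaked for 10 seconds in water or in test agent at 100 ppm. After moist incubation in lidded dishes, with controlled temperature and humidity and adequate indirect light, hatched larvae were counted five days post-delivery to judge hatching inhibition.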

[2] = system: eggs of Tetranychus urticae; test: Effect on hatching of eggs of Tetranychus urticae, leaf disc method; type: in vivo; conditions: 5 ppm; for Hatching rate (%): 5 days after insecticide delivery
Outline: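 This leaf disc test measured inhibition of Tetranychus urticae egg hatching. Eggs laid on Vicia faba discs were counted microscopically, and the discs were soaked for 10 seconds in compound at 5 ppm, with clear water as control. They were incubated under controlled temperature and humidity with strong indirect light, avoiding condensate. Hatched eggs, leaf damage and developmental abnormalities were recorded five days after delivery.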

Magnaporthe grisea = type: cell-based; conditions: 100 ppm
[3] = Replicate 1, listed as 1-(S, R)
[4] = Replicate 2, listed as 1-(S, R)
[5] = Replicate 3, listed as 1-(S, R)
[6] = Replicate 1, listed as 19′-(R, R)
[7] = Replicate 2, listed as 19′-(R, R)

Structure (SMILES): C[C@@H](COS(=O)OCCF)Oc1ccc(Cl)cc1Cl (stereo partly drawn) [1-(S,R)]
- Hatching rate (%), Replicate 1 (eggs of Aleyrodidae; listed as 1-(S, R)): 9.65%
- Hatching rate (%), Replicate 2 (eggs of Aleyrodidae; listed as 1-(S, R)): 9.38%
- Hatching rate (%), Replicate 3 (eggs of Aleyrodidae; listed as 1-(S, R)): 10.48%
- Number of hatched larvae 5 days after insecticide delivery, Replicate 1 (eggs of Aleyrodidae; listed as 1-(S, R)): 11
- Number of hatched larvae 5 days after insecticide delivery, Replicate 2 (eggs of Aleyrodidae; listed as 1-(S, R)): 12
- Number of hatched larvae 5 days after insecticide delivery, Replicate 3 (eggs of Aleyrodidae; listed as 1-(S, R)): 11
- Number of hatched larvae 4 days after insecticide delivery, Replicate 1 ([1]; listed as 1-(S, R)): 13
- Number of hatched larvae 4 days after insecticide delivery, Replicate 2 ([1]; listed as 1-(S, R)): 14
- Number of hatched larvae 4 days after insecticide delivery, Replicate 3 ([1]; listed as 1-(S, R)): 14
- Hatching rate (%), Replicate 1 ([1]; listed as 1-(S, R)): 12.04%
- Hatching rate (%), Replicate 2 ([1]; listed as 1-(S, R)): 14.14%
- Hatching rate (%), Replicate 3 ([1]; listed as 1-(S, R)): 13.73%
- Hatching rate (%) (eggs of Thrips; [3]): 12.06%
- Hatching rate (%) (eggs of Thrips; [4]): 8.33%
- Hatching rate (%) (eggs of Thrips; [5]): 10.28%
- Number of hatched larvae 5 days after insecticide delivery (eggs of Thrips; [3]): 17
- Number of hatched larvae 5 days after insecticide delivery (eggs of Thrips; [4]): 8
- Number of hatched larvae 5 days after insecticide delivery (eggs of Thrips; [5]): 11
- Hatching rate (%) [2, 3]: 10.87%
- Hatching rate (%) [2, 4]: 12.16%
- Number of hatched larvae 5 days after insecticide delivery [2, 3]: 10
- Number of hatched larvae 5 days after insecticide delivery [2, 4]: 9
- inhibitory rate against Magnaporthe grisea (in words) (Magnaporthe grisea): strong inhibitory rate
- Average antifungal rate (%) (Magnaporthe grisea; 96-well plate, average of 3 replicates): 82.92%
- Antifungal rate of Magnaporthe grisea (%), Replicate 1 (Magnaporthe grisea; 96-well plate): 87.32%
- Antifungal rate of Magnaporthe grisea (%), Replicate 2 (Magnaporthe grisea; 96-well plate): 82.96%
- Antifungal rate of Magnaporthe grisea (%), Replicate 3 (Magnaporthe grisea; 96-well plate): 78.48%

Structure (SMILES): CCC(COS(=O)OCCF)Oc1ccc(Cl)cc1Cl [19′-(R,R)]
- inhibitory activity on the hatching of eggs of Aleyrodidae (in words) (eggs of Aleyrodidae): strong inhibitory activities
- Hatching rate (%), Replicate 1 (eggs of Aleyrodidae): 0.00%
- Hatching rate (%), Replicate 2 (eggs of Aleyrodidae): 0.00%
- Hatching rate (%), Replicate 3 (eggs of Aleyrodidae): 0.00%
- Number of hatched larvae 5 days after insecticide delivery, Replicate 1 (eggs of Aleyrodidae): 0
- Number of hatched larvae 5 days after insecticide delivery, Replicate 2 (eggs of Aleyrodidae): 0
- Number of hatched larvae 5 days after insecticide delivery, Replicate 3 (eggs of Aleyrodidae): 0
- inhibitory activity on the hatching of eggs of Harmonia axyridis (in words) [1]: strong inhibitory activities
- Number of hatched larvae 4 days after insecticide delivery, Replicate 1 ([1]; listed as 19′-(R, R)): 0
- Number of hatched larvae 4 days after insecticide delivery, Replicate 2 ([1]; listed as 19′-(R, R)): 0
- Number of hatched larvae 4 days after insecticide delivery, Replicate 3 ([1]; listed as 19′-(R, R)): 0
- Hatching rate (%), Replicate 1 ([1]; listed as 19′-(R, R)): 0.00%
- Hatching rate (%), Replicate 2 ([1]; listed as 19′-(R, R)): 0.00%
- Hatching rate (%), Replicate 3 ([1]; listed as 19′-(R, R)): 0.00%
- inhibitory activity on the hatching of eggs of Thrips (in words) (eggs of Thrips): strong inhibitory activities
- Hatching rate (%) (eggs of Thrips; [6]): 0.00%
- Hatching rate (%) (eggs of Thrips; [7]): 0.00%
- Hatching rate (%) (eggs of Thrips; Replicate 3): 0.00%
- Number of hatched larvae 5 days after insecticide delivery (eggs of Thrips; [6]): 0
- Number of hatched larvae 5 days after insecticide delivery (eggs of Thrips; [7]): 0
- Number of hatched larvae 5 days after insecticide delivery (eggs of Thrips; Replicate 3): 0
- inhibitory activity on the hatching of eggs of Tetranychus urticae (in words) [2]: strong inhibitory activities
- Hatching rate (%) [2, 6]: 0.00%
- Hatching rate (%) [2, 7]: 0.00%
- Number of hatched larvae 5 days after insecticide delivery [2, 6]: 0
- Number of hatched larvae 5 days after insecticide delivery [2, 7]: 0
- inhibitory rate against Magnaporthe grisea (in words) (Magnaporthe grisea): strong inhibitory rate
- Antifungal rate of Magnaporthe grisea (%), Replicate 1 (Magnaporthe grisea; 96-well plate): 96.97%
- Antifungal rate of Magnaporthe grisea (%), Replicate 2 (Magnaporthe grisea; 96-well plate): 97.35%
- Antifungal rate of Magnaporthe grisea (%), Replicate 3 (Magnaporthe grisea; 96-well plate): 97.26%
